Source: patent EP0129409B1, “Thiazolo - and thiazinobenzimidazoles” (JOHN WYETH & BROTHER LIMITED, priority 1983, dated 1984)
Where two headings read alike, the source gives them in different places.

Key:
[1] = antisecretory activity, test of Shay, Sun and Gruenstein; settings: in vivo
[2] = biological target: T1, H⁺/K⁺ ATPase (Oryctolagus cuniculus, UniProt P27112); test: inhibition of 14C-aminopyrine uptake in rabbit isolated gastric glands stimulated by DBcAMP or high K+; assay type: cell-based; settings: % inhibition of the maximum response to the secretagogue; for inhibition at 10 µM: at 10⁻⁵M
T1 construct: Rabbit gastric glands are isolated from gastric mucosa from the corpus region of the stomach; from tissue; host or cells: rabbit isolated gastric glands (gastric mucosa, corpus region of the stomach)
Experimental: Compounds of formula I were also tested for anti-secretory activity by their ability to inhibit the highly specific proton transporting enzyme H⁺/K⁺ ATPase.
Potential H⁺/K⁺ ATPase inhibitors were evaluated by a technique involving the measurement of aminopyrine accumulation in rabbit isolated gastric glands. Aminopyrine accumulates in acid-secreting cells; therefore, uptake of aminopyrine is increased by secretagogues and an inhibitor of acid secretion will reduce the response to one or more secretagogues depending upon its site of action. […] The following test procedure is used: Rabbit gastric glands are isolated from gastric mucosa from the corpus region of the stomach by a method based on one described by Berglindh T., Obrink K.J., Acta Physiol. Scand.
Results are expressed as the % inhibition of the maximum response to the secretagogue induced by the test compound. An inhibitor of H⁺/K⁺ ATPase would be expected to reduce the response to both secretagogues.

[3] = tested on: stress-induced erosion; test: stress-induced erosion test of Senay and Levine (anti-ulcer activity); assay type: in vivo; settings: decrease in ulcer formation as percentage of control score, rats, oral
Experimental: Anti-ulcer activity was determined by the stress-induced erosion test of Senay and Levine, Proc. Soc. Exp. Biol. Med., 124, 1221-3 (1967). The procedure used was as follows.
Male rats, weighing between 80 and 120 gms. were fasted overnight with water ad lib. The rats were then divided into groups of six and dosed orally with the test drug in the form of a solution or with the vehicle alone, 0.5% carboxymethylcellulose, in a volume of 10ml/kg.
After 30 minutes the rats were inserted into aluminium restraining tubes measuring 1⁵/₈ inches in diameter by 5 inches and placed in the cold (4±1°C) for 3 hours. Immediately after cold exposure the rats were killed with intracranial alcohol and their stomachs excised and opened along the greater curvature. Each stomach was washed gently free of contents with warm tap water and pinned out on a board. The condition of the gastric mucosa was then scored from 0 to 6 on the following scale:
The maximum possible score for each animal was 6 and for the group 36. Decrease in ulcer formation was calculated as a percentage of the control score, i.e. [formula] The statistical significance of the effect is assessed by Student's t-test.

[4] = at 10⁻⁴M, read-out: % Inhibition to stimulation by: DBcAMP
[5] = at 10⁻⁴M, read-out: % Inhibition to stimulation by: K⁺

T1 sequence (P27112 whole entry): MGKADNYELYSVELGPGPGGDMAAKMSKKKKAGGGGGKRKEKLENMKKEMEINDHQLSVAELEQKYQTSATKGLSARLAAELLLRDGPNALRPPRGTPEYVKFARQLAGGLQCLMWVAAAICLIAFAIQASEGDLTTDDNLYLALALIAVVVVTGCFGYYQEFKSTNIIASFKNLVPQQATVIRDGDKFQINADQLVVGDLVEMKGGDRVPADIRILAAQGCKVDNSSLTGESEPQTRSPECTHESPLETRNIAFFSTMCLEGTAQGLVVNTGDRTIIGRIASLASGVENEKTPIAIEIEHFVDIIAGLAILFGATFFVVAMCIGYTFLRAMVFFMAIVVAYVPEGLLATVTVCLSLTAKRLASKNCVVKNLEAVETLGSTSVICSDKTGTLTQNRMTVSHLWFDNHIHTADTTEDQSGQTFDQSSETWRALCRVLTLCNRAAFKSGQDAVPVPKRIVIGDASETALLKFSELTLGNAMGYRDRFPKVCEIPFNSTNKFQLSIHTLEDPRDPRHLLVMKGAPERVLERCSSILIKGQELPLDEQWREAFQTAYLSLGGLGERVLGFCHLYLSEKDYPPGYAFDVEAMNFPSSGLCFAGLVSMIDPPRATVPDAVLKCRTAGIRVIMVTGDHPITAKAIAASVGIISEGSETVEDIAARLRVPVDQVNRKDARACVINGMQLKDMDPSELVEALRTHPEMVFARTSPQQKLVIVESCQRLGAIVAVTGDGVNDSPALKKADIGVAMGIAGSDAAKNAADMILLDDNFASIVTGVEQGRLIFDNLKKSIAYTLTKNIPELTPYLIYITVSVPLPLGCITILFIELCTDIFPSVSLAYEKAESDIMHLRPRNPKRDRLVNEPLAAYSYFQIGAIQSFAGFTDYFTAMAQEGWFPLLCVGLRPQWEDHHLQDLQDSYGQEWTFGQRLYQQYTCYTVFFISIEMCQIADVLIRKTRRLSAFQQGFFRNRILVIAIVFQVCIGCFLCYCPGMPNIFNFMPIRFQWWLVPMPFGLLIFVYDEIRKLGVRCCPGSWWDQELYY
T1 sequence (P18597 whole entry partner): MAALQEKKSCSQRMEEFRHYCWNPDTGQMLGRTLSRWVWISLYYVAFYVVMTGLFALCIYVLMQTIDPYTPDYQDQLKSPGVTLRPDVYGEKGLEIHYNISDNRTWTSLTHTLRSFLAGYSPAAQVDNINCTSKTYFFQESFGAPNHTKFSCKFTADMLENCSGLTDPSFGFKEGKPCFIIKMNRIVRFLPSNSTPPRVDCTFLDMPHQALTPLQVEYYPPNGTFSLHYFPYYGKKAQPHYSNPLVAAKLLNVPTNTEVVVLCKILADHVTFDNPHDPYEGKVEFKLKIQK

Compound: 2,3-Dihydro-6-methyl-2-(2-pyridyl)thiazolo[3,2-a]-benzimidazole and 2,3-Dihydro-7-methyl-2-(2-pyridyl)-thiazolo [3,2-a]benzimidazole [Example 7]
- Antisecretory activity [1]: particularly active

Compound: 2,3-Dihydro-6-methyl-2-(2-pyridyl)thiazolo[3,2-a]-benzimidazole-1-oxide and 2,3-Dihydro-7-methyl-2-(2-pyridyl)thiazolo[3,2-a]benzimidazole-1-oxide [Example 10]
- Antisecretory activity [1]: particularly active

Compound: 6-Chloro-2,3-dihydro-2-(2-pyridyl)thiazolo[3,2-a]-benzimidazole-1-oxide and 7-chloro-2,3-dihydro-2-(2-pyridyl)-thiazolo[3,2-a]benzimidazole-1-oxide [Example 18]
- Antisecretory activity [1]: particularly active

Compound: 6-Ethoxy-2-(2-pyridyl)thiazolo[3,2-a]-benzimidazole and 7-ethoxy-2-(2-pyridyl)thiazolo[3,2-a]benzimidazole [Example 24]
- % Inhibition to stimulation by: DBcAMP ([2]; at 10⁻⁴M, 100 µM): 68% at 10⁻⁴M
- % Inhibition to stimulation by: K⁺ ([2]; at 10⁻⁴M, 100 µM): 162% at 10⁻⁴M

Compound: c1ccc(C2Cn3c(nc4ccccc43)S2)nc1 (centres unmarked) [Example 1, 2,3-Dihydro-2-(2-pyridyl)thiazolo[3,2-a]benzimidazole]
- Inhibition ([3]; Dose 30 mg/kg): 86%
- Inhibition ([3]; Dose 100 mg/kg): 75%
- Antisecretory activity [1]: particularly active

Compound: [O-][S+]1c2nc3ccccc3n2CC1c1ccccn1 (centres unmarked) [Example 2, 2,3-Dihydro-2-(2-pyridyl)thiazolo[3,2-a]benzimidazole-1-oxide]
- Antisecretory activity [1]: particularly active
- inhibition at 100 µM [2, 4]: 74%
- inhibition at 100 µM [2, 5]: 91%
- inhibition at 10 µM ([2]; read-out: % Inhibition to stimulation by: DBcAMP): 73%
- inhibition at 10 µM ([2]; read-out: % Inhibition to stimulation by: K⁺): 26%

Compound: c1ccc(C2Cn3c(nc4ccccc43)S2)cc1 (centres unmarked) [Example 3, 2,3-Dihydro-2-phenylthiazolo[3,2-a]benzimidazole]
- Inhibition ([3]; Dose 100 mg/kg): 74%

Compound: Cc1ccc(C2Cn3c(nc4cc(Cl)c(Cl)cc43)S2)cn1 (centres unmarked) [Example 6, 6,7-Dichloro-2,3-dihydro-2-(6-methylpyrid-3-yl)thiazolo-[3,2-a]benzimidazole]
- inhibition at 100 µM [2, 4]: 90%
- inhibition at 100 µM [2, 5]: 187%

Compound: Clc1cc2nc3n(c2cc1Cl)CC(c1ccccn1)S3 (centres unmarked) [Example 8, 6,7-Dichloro-2,3-dihydro-2-(2-pyridyl)thiazolo[3,2-a]-benzimidazole]
- inhibition at 100 µM [2, 4]: 50.5%

Compound: Cc1cc2nc3n(c2cc1C)CC(c1ccccn1)S3 (centres unmarked) [Example 9, 2,3-Dihydro-6,7-dimethyl-2-(2-pyridyl)thiazolo[3,2-a]-benzimidazole]
- Inhibition ([3]; Dose 100 mg/kg): 82%
- Antisecretory activity [1]: particularly active

Compound: Cc1cc2nc3n(c2cc1C)CC(c1ccccn1)[S+]3[O-] (centres unmarked) [Example 13, 2,3-Dihydro-6,7-dimethyl-2-(2-pyridyl)thiazolo[3,2-a]-benzimidazole-1-oxide]
- Antisecretory activity [1]: particularly active
- inhibition at 100 µM [2, 4]: 30%
- inhibition at 100 µM [2, 5]: 209%

Compound: CCc1ccc(-c2cn3c(nc4ccccc43)s2)nc1 [Example 27, 2-(2-(5-Ethylpyridyl))thiazolo[3,2-a]benzimidazole]
- inhibition at 100 µM [2, 4]: 56%
- inhibition at 100 µM [2, 5]: 142%

Compound: c1ccc(-c2cccc(-c3cn4c(nc5ccccc54)s3)n2)cc1 [Example 37, 2-[2-(6-Phenylpyridyl)]thiazolo[3,2-a]benzimidazole]
- inhibition at 100 µM [2, 4]: 22%
- inhibition at 100 µM [2, 5]: 381%
